In paper PMC9569995, “Study of Biological Activities and ADMET-Related Properties of Salicylanilide-Based Peptidomimetics” (International Journal of Molecular Sciences, 2022):
Read-outs that look alike come from different tables or passages of the source.

How the values were obtained:
M. smegmatis ATCC 700084 = assay: In vitro antimycobacterial evaluation, MIC (broth dilution micro-method); assay type: cell-based, Mycobacterium smegmatis; settings: Mycolicibacterium smegmatis
Procedure: For M. smegmatis, the broth dilution micro-method in Middlebrook 7H9 medium (Difco) supplemented with ADC Enrichment (Difco) was used. […] Bacterial inocula were prepared by transferring colonies from culture to sterile water. The cell density was adjusted to 0.5 McFarland units using a densitometer (Densi-La-Meter, LIAP, Riga, Latvia). The final inoculum was made by 1:1000 dilution of the suspension with sterile water. Drug-free controls, sterility controls, and controls consisting of medium and DMSO alone were included. The determination of results was performed visually after three days of static incubation in the darkness at 37 °C in an aerobic atmosphere.

[1] = tested on: vancomycin-resistant E. faecalis VRE 368; assay: In vitro antibacterial evaluation, MIC by microtitration broth method; settings: Enterococcus faecalis
[2] = tested on: Staphylococcus aureus ATCC 29213; assay: as above
[3] = tested on: Mycobacterium tuberculosis H37Ra/ATCC 25177; assay: In vitro antimycobacterial evaluation, MIC (alamarBlue); settings: MT
[4] = Lipophilicity determination by HPLC; assay type: physicochemical; settings: for log D6.5: HPLC C18, MeOH 72%/acetate-buffered saline pH 6.5 28%; for log D7.4: HPLC C18, MeOH 72%/acetate-buffered saline pH 7.4 28%; for log k: logarithm of capacity factor, HPLC C18, MeOH 72%/H2O 28%
Description: . A chromatographic column Symmetry® C18 5 μm, 4.6 × 250 mm, Part No. W21751W016 (Waters Corp, Milford, MA, USA) was used. The HPLC separation process was monitored by ChemStation for LC 3D systems (Agilent Technologies). Isocratic elution by a mixture of MeOH (HPLC grade, 72%) and H2O-HPLC Mili-Q grade (28%) as a mobile phase was used for the determination of capacity factor k. Isocratic elution by a mixture of MeOH (HPLC grade, 72%) and acetate-buffered saline (pH 7.4 and pH 6.5) (28%) as a mobile phase was used for the determination of distribution coefficient expressed as D7.4 and D6.5. The total flow of the column was 1.0 mL/min, injection was 20 μL, column temperature was 40 °C, and sample temperature was 10 °C. The detection wavelength of 210 nm was chosen. A KI methanolic solution was used for the determination of the dead times (tD). Retention times (tR) were measured in minutes. The capacity factors k were calculated according to the formula k = (tR − tD)/tD, where tR is the retention time of the solute, and tD is the dead time obtained using an unretained analyte. The distribution coefficients DpH were calculated according to the formula DpH = (tR − tD)/tD. Each experiment was repeated three times.

[5] = tested on: vancomycin-resistant E. faecalis VRE 342B; assay: In vitro antibacterial evaluation, MIC by microtitration broth method; settings: Enterococcus faecalis
[6] = tested on: methicillin-resistant S. aureus SA 630; assay: as above; settings: Staphylococcus aureus
[7] = tested on: vancomycin-resistant E. faecalis VRE 725B; assay: as above; settings: Enterococcus faecalis
[8] = tested on: methicillin-resistant S. aureus SA 3202; assay: as above; settings: Staphylococcus aureus
[9] = tested on: methicillin-resistant S. aureus 63718; assay: as above; settings: Staphylococcus aureus
[10] = tested on: Enterococcus faecalis ATCC 29212; assay: as above
[11] = tested on: human monocytic leukemia cell line THP-1; assay: In vitro cell viability analysis (CCK-8); assay type: cell-based; settings: ± SD, n = 6, medium with 10% FBS, 24 h
Procedure: Human monocytic leukemia THP-1 cells obtained from the European Collection of Cell Cultures (ECACC, Salisbury, UK) were used for in vitro antiproliferative assays. They were routinely cultured in Roswell Park Memorial Institute RPMI 1640 medium supplemented with 10% fetal bovine serum (FBS), 2% L-glutamine, 1% penicillin, and streptomycin (all from Sigma-Aldrich) at 37 °C with 5% CO2. The cells were incubated in a complete medium (i.e., containing FBS) with test compounds at 37 °C with 5% CO2 for 24 h, similarly as we described previously. The effect of the test compounds dissolved in DMSO on cell viability was determined using a Cell Counting Kit-8 (CCK-8; Sigma) according to the manufacturer’s instructions.

[12] = ATCC700084, 72 h, MS, three days, 37 °C, read-out: MIC

With `O=C(N[C@@H](CC1CCCCC1)C(=O)Nc1ccc(C(F)(F)F)cc1)c1cc(Cl)ccc1OCc1ccccc1` [2g, 2-(Benzyloxy)-5-chloro-N-[(2S)-3-cyclohexyl-1-oxo-1-{[4-(trifluoromethyl)phenyl]amino}propan-2-yl]benzamide] the MIC (M. smegmatis ATCC 700084; ATCC700084) was > 256 µg/mL, the MIC [1] was > 256 µg/mL and the MIC ([2]; ATCC29213) was > 256 µg/mL. The MIC ([3]; Table S2) was > 256 µg/mL, the “log D6.5” value [4] was 1.767 and the “log D7.4” value [4] was 1.746. For the same compound, the log k [4] was 1.820, the MIC [5] was > 256 µg/mL and the MIC [6] was > 256 µg/mL. The MIC [7] was > 256 µg/mL, the MIC [8] was > 256 µg/mL and the MIC [9] was > 256 µg/mL. The MIC ([10]; ATCC29212) was > 256 µg/mL and the IC50 [11] was > 10 µM.

With `C[C@H](NC(=O)c1cc(Cl)ccc1O)C(=O)Nc1ccc(C(F)(F)F)cc1` [3a, 5-Chloro-2-hydroxy-N-[(2S)-1-oxo-1-{[4-(trifluoromethyl)phenyl]amino}propan-2-yl]benzamide] the MIC (M. smegmatis ATCC 700084; [12]) was > 256 µg/mL, the MIC ([1]; 24 h) was > 256 µg/mL and the MIC ([2]; ATCC29213, 24 h) was > 256 µg/mL. The MIC ([3]; 14 days, 37 °C) was “n.a. n.d. (n.a. = no activity (MIC > 256 µg/mL))”, the “log D6.5” value [4] was 0.804 and the “log D7.4” value [4] was 0.759. The “averaged lipophilicity value of log k/log D6.5/log D7.4” value ([4]; average of the three experimental descriptors) was 0.81 ± 0.05, the log k [4] was 0.866 and the MIC ([5]; 24 h) was > 256 µg/mL. The MIC ([6]; 24 h) was > 256 µg/mL, the MIC ([7]; 24 h) was > 256 µg/mL and the MIC ([8]; 24 h) was > 256 µg/mL. For the same compound, the MIC ([9]; 24 h) was > 256 µg/mL, the MIC ([10]; ATCC29212, 24 h) was > 256 µg/mL and the IC50 [11] was > 10 µM.

For `O=C(N[C@@H](Cc1ccccc1)C(=O)N[C@@H](Cc1ccccc1)C(=O)Nc1ccc(C(F)(F)F)cc1)c1cc(Cl)ccc1O` [6c], the MIC (M. smegmatis ATCC 700084; [12]) was > 256 µg/mL, the MIC ([1]; 24 h) was > 256 µg/mL and the MIC ([2]; ATCC29213, 24 h) was > 256 µg/mL. The MIC ([3]; 14 days, 37 °C) was “n.a. n.d. (n.a. = no activity (MIC > 256 µg/mL))”, the “log D6.5” value [4] was 1.548 and the “log D7.4” value [4] was 1.495. For the same compound, the log k [4] was 1.587, the MIC ([5]; 24 h) was > 256 µg/mL and the MIC ([6]; 24 h) was > 256 µg/mL. The MIC ([7]; 24 h) was > 256 µg/mL, the MIC ([8]; 24 h) was > 256 µg/mL and the MIC ([9]; 24 h) was > 256 µg/mL. The MIC ([10]; ATCC29212, 24 h) was > 256 µg/mL and the IC50 [11] was 1.3 ± 1.1 µM.

With `CC(C)[C@H](NC(=O)c1cc(Cl)ccc1OCc1ccccc1)C(=O)Nc1ccc(C(F)(F)F)cc1` [2c, 2-(Benzyloxy)-5-chloro-N-[(2S)-3-methyl-1-oxo-1-{[4-(trifluoromethyl)phenyl]amino}butan-2-yl]benzamide] the MIC (M. smegmatis ATCC 700084; ATCC700084) was > 256 µg/mL, the MIC [1] was > 256 µg/mL and the MIC ([2]; ATCC29213) was > 256 µg/mL. For the same compound, the MIC ([3]; Table S2) was > 256 µg/mL, the “log D6.5” value [4] was 1.711 and the “log D7.4” value [4] was 1.697. For the same compound, the log k [4] was 1.683, the MIC [5] was > 256 µg/mL and the MIC [6] was > 256 µg/mL. For the same compound, the MIC [7] was > 256 µg/mL, the MIC [8] was > 256 µg/mL and the MIC [9] was > 256 µg/mL. The MIC ([10]; ATCC29212) was > 256 µg/mL and the IC50 [11] was > 10 µM.

In the case of `CSCC[C@H](NC(=O)c1cc(Cl)ccc1OCc1ccccc1)C(=O)Nc1ccc(C(F)(F)F)cc1` [2e, 2-(Benzyloxy)-5-chloro-N-[(2S)-4-(methylsulfanyl)-1-oxo-1-{[4-(trifluoromethyl)phenyl]amino}butan-2-yl]benzamide], the MIC (M. smegmatis ATCC 700084; ATCC700084) is reported as > 256 µg/mL, the MIC [1] is reported as > 256 µg/mL and the MIC ([2]; ATCC29213) is reported as > 256 µg/mL. For the same compound, the MIC ([3]; Table S2) was > 256 µg/mL, the “log D6.5” value [4] was 1.714 and the “log D7.4” value [4] was 1.689. The log k [4] was 1.668, the MIC [5] was > 256 µg/mL and the MIC [6] was > 256 µg/mL. For the same compound, the MIC [7] was > 256 µg/mL, the MIC [8] was > 256 µg/mL and the MIC [9] was > 256 µg/mL. The MIC ([10]; ATCC29212) was > 256 µg/mL and the IC50 [11] was > 10 µM.

In the case of `O=C(N[C@@H](Cc1ccccc1)C(=O)N[C@@H](Cc1ccccc1)C(=O)Nc1ccc(C(F)(F)F)cc1)c1cc(Cl)ccc1OCc1ccccc1` [5c], the MIC (M. smegmatis ATCC 700084; ATCC700084) is reported as > 256 µg/mL, the MIC [1] is reported as > 256 µg/mL and the MIC ([2]; ATCC29213) is reported as > 256 µg/mL. The MIC ([3]; Table S2) was > 256 µg/mL, the “log D6.5” value [4] was 2.062 and the “log D7.4” value [4] was 2.096. For the same compound, the log k [4] was 2.119, the MIC [5] was > 256 µg/mL and the MIC [6] was > 256 µg/mL. For the same compound, the MIC [7] was > 256 µg/mL, the MIC [8] was > 256 µg/mL and the MIC [9] was > 256 µg/mL. For the same compound, the MIC ([10]; ATCC29212) was > 256 µg/mL and the IC50 [11] was > 10 µM.

With `O=C(N[C@@H](Cc1ccccc1)C(=O)Nc1ccc(C(F)(F)F)cc1)c1cc(Cl)ccc1OCc1ccccc1` [2h] the MIC (M. smegmatis ATCC 700084; ATCC700084) was > 256 µg/mL, the MIC [1] was > 256 µg/mL and the MIC ([2]; ATCC29213) was > 256 µg/mL. For the same compound, the MIC ([3]; Table S2) was > 256 µg/mL, the “log D6.5” value [4] was 1.889 and the “log D7.4” value [4] was 1.871. The log k [4] was 1.852, the MIC [5] was > 256 µg/mL and the MIC [6] was > 256 µg/mL. For the same compound, the MIC [7] was > 256 µg/mL, the MIC [8] was > 256 µg/mL and the MIC [9] was > 256 µg/mL. The MIC ([10]; ATCC29212) was > 256 µg/mL and the IC50 [11] was > 10 µM.
